Results reported in ChEMBL document CHEMBL1641574 (Bioorg Med Chem, 2011).
The source made the active and inactive calls. No cut-off for these calls is given here.

Legend:
Format in all cases: cell-based
[1] = target: T1, Sodium-dependent dopamine transporter (Homo sapiens, UniProt Q01959); assay: Inhibition of [3H]dopamine uptake at human DAT expressed in mouse N2A cells
[2] = target: T1, Sodium-dependent dopamine transporter; assay: Displacement of [3H]WIN-35428 from human DAT stably expressed in mouse N2A cells by scintillation countnig
[3] = target: T1, Sodium-dependent dopamine transporter; assay: Binding affinity to human DAT expressed in UV irradiated mouse N2A cells by photoaffinity labeling assay; settings: tested as the 125I-labelled form

T1 sequence (Q01959 whole entry): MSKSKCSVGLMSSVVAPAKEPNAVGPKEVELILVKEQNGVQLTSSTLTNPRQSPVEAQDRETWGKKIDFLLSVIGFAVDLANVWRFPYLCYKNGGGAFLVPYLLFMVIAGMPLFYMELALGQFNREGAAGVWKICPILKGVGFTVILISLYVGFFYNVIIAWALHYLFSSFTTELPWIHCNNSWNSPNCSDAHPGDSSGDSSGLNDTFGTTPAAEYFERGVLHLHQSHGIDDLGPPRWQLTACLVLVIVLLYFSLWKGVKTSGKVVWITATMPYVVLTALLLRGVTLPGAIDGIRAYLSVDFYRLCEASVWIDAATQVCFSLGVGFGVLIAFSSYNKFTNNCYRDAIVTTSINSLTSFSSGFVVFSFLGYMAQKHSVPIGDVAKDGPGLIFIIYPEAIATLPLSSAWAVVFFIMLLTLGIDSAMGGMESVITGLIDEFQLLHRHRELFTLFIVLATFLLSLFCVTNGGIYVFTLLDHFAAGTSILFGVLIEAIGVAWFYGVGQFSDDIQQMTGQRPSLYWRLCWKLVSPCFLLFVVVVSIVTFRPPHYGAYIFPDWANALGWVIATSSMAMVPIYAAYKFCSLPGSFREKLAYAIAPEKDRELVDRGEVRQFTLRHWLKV

Structure (SMILES) | IC50 [1] | Ki [2] | Activity [3]
COC(=O)[C@H](c1ccc(I)cc1)[C@H]1CCCCN1Cc1ccc(N=[N+]=[N-])cc1 (racemic) | 2760 nM | 363 nM | Active
COC(=O)[C@H](c1cccc(I)c1)[C@H]1CCCCN1Cc1ccccc1N=[N+]=[N-] (racemic) | 2700 nM | 1110 nM | 
COC(=O)[C@H](c1ccc(I)cc1)[C@H]1CCCCN1Cc1ccccc1N=[N+]=[N-] (racemic) | 1230 nM | 517 nM | 
COC(=O)[C@H](c1ccc(I)cc1)[C@H]1CCCCN1Cc1cccc(N=[N+]=[N-])c1 (racemic) | 7970 nM | 2750 nM | 
COC(=O)[C@H](c1ccc(I)cc1)[C@H]1CCCCN1 (racemic) | 11 nM | 14 nM | 
COC(=O)[C@H](c1cccc(I)c1)[C@H]1CCCCN1Cc1cccc(N=[N+]=[N-])c1 (racemic) | 4630 nM | 2060 nM | 
COC(=O)[C@H](c1cccc(I)c1)[C@H]1CCCCN1 (racemic) | 14 nM | 4.5 nM | 
COC(=O)[C@H](c1cccc(I)c1)[C@H]1CCCCN1Cc1ccc(N=[N+]=[N-])cc1 (racemic) | 1830 nM | 658 nM | 
